This is an account of results in US9247759B2, “Identification of human T2R receptors that respond to bitter compounds that elicit the bitter taste in compositions, and the use thereof in assays to identify compounds that inhibit (block) bitter taste in compositions and use thereof” (SENOMYX, INC., priority 2007, dated 2016).

The experiment addresses hT2R8 (Homo sapiens (Human), UniProt Q9NYW2). Kind of experiment: hT2R8 antagonist high-throughput FLIPR assay, stable cell line with G16g44, agonist andrographolide. The class given is cell-based. The gist of the method: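 HEK293 cells stably co-expressing hT2R8 and chimeric G16g44, read on FLIPR. Test compounds added together with andrographolide (200 μM), which drives the receptor to 70–80% of maximal activity; antagonism seen as reduced agonist response.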

Setting [1] is: read-out: IC50 on hT2R8 bitter receptor.
The mark [2] stands for this setting: table after Example 10-97, read-out: hT2R8 IC50.

Where two headings read alike, the source gives them in different places.

hT2R8, sequence (Q9NYW2 whole entry): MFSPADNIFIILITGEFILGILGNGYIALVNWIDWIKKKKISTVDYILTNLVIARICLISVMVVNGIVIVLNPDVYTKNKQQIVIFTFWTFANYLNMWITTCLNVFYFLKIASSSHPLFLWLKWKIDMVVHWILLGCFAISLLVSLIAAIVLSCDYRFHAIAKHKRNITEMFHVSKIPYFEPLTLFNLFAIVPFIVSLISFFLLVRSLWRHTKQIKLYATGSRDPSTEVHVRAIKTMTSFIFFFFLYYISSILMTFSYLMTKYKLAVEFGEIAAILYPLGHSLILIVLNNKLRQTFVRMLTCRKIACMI

What is called IC50 is the concentration that inhibits the measured activity by half. `Cc1noc(C)c1Cn1cc(N2C(=O)CN(Cc3cccc(CO)n3)C2=O)cn1` [Example 10-71, 3-(1-((3,5-dimethylisoxazol-4-yl)methyl)-1H-pyrazol-4-yl)-1-((6-(hydroxymethyl)pyridin-2-yl)methyl)imidazolidine-2,4-dione]: the IC50 is 720 nM under setting [1] and 721 nM under setting [2].
With `COc1ccnc(CN2CC(=O)N(c3cnn(Cc4c(C)noc4C)c3)C2=O)c1OC` [Example 10-72, 1-((3,4-dimethoxypyridin-2-yl)methyl)-3-(1-((3,5-dimethylisoxazol-4-yl)methyl)-1H-pyrazol-4-yl)imidazolidine-2,4-dione], the IC50 runs as follows: under setting [1], 1000 nM; under setting [2], 999 nM.
Regarding `Cc1noc(C)c1Cn1cc(N2C(=O)CN(CC3CCCO3)C2=O)cn1` (centres unmarked) [Example 10-73], the IC50 came out at 1400 nM under setting [1] and 1360 nM under setting [2].
The corresponding values for `Cc1noc(C)c1Cn1cc(N2C(=O)CN(CC3CCCCC3)C2=O)cn1` [Example 10-74, 1-(cyclohexylmethyl)-3-(1-((3,5-dimethylisoxazol-4-yl)methyl)-1H-pyrazol-4-yl)imidazolidine-2,4-dione] are 280 nM and 276 nM.
The corresponding values for `COc1cccc(CN2CC(=O)N(c3cnn(Cc4c(C)noc4C)c3)C2=O)n1` [Example 10-75, 3-(1-((3,5-dimethylisoxazol-4-yl)methyl)-1H-pyrazol-4-yl)-1-((6-methoxypyridin-2-yl)methyl)imidazolidine-2,4-dione] are 230 nM and 229 nM.
On to `COc1ccc(CCN2CC(=O)N(c3cnn(Cc4c(C)noc4C)c3)C2=O)cc1` [Example 10-79, 3-(1-((3,5-dimethylisoxazol-4-yl)methyl)-1H-pyrazol-4-yl)-1-(4-methoxyphenethyl)imidazolidine-2,4-dione], for which the IC50 under setting [1] stood at 40 nM and the half-inhibitory concentration (IC50) under setting [2] was 44 nM.
For the compound `Cc1noc(C)c1Cn1cc(N2C(=O)CN(CCc3cccc4ccccc34)C2=O)cn1` [Example 10-80], the IC50 under setting [1] came out at 1270 nM and the IC50 under setting [2] turned out to be 927 nM.
`Cc1noc(C)c1Cn1cc(N2C(=O)CN(CCc3ccccc3Cl)C2=O)cn1` [Example 10-81, 1-(2-chlorophenethyl)-3-(1-((3,5-dimethylisoxazol-4-yl)methyl)-1H-pyrazol-4-yl)imidazolidine-2,4-dione]: the half-inhibitory concentration (IC50) was determined as 250 nM under setting [1] and 248 nM under setting [2].
For `Cc1noc(C)c1Cn1cc(N2C(=O)CN(CCc3cccc(Cl)c3)C2=O)cn1` [Example 10-82, 1-(3-chlorophenethyl)-3-(1-((3,5-dimethylisoxazol-4-yl)methyl)-1H-pyrazol-4-yl)imidazolidine-2,4-dione], in that order: 200 nM and 982 nM.
For `Cc1noc(C)c1Cn1cc(N2C(=O)CN(CCc3ccccc3F)C2=O)cn1` [Example 10-83, 3-(1-((3,5-dimethylisoxazol-4-yl)methyl)-1H-pyrazol-4-yl)-1-(2-fluorophenethyl)imidazolidine-2,4-dione], the IC50 stood at 130 nM under setting [1] and 442 nM under setting [2].
The corresponding values for `Cc1noc(C)c1Cn1cc(N2C(=O)CN(CCc3ccc(F)cc3)C2=O)cn1` [Example 10-84, 3-(1-((3,5-dimethylisoxazol-4-yl)methyl)-1H-pyrazol-4-yl)-1-(4-fluorophenethyl)imidazolidine-2,4-dione] are 10 nM and 27 nM.
For the compound `COc1cccc(CCN2CC(=O)N(c3cnn(Cc4c(C)noc4C)c3)C2=O)c1` [Example 10-85, 3-(1-((3,5-dimethylisoxazol-4-yl)methyl)-1H-pyrazol-4-yl)-1-(3-methoxyphenethyl)imidazolidine-2,4-dione], the IC50 is 160 nM under setting [1] and 158 nM under setting [2].
In the case of `Cc1noc(C)c1Cn1cc(N2C(=O)CN(CCc3ccc(O)cc3)C2=O)cn1` [Example 10-86, 3-(1-((3,5-dimethylisoxazol-4-yl)methyl)-1H-pyrazol-4-yl)-1-(4-hydroxyphenethyl)imidazolidine-2,4-dione], the IC50 is, setting by setting: under setting [1], 410 nM; under setting [2], 412 nM.
Take `COc1ccc(CCN2CC(=O)N(c3cnn(Cc4c(C)noc4C)c3)C2=O)cc1OC` [Example 10-87, 1-(3,4-dimethoxyphenethyl)-3-(1-((3,5-dimethylisoxazol-4-yl)methyl)-1H-pyrazol-4-yl)imidazolidine-2,4-dione]: the IC50 runs as follows: under setting [1], 260 nM; under setting [2], 137 nM.
Regarding `Cc1noc(C)c1Cn1cc(N2CCN(Cc3ccccc3)C2=O)cn1` [Example 10-88, 1-benzyl-3-(1-((3,5-dimethylisoxazol-4-yl)methyl)-1H-pyrazol-4-yl)imidazolidin-2-One], the IC50 by setting is: under setting [1], 710 nM; under setting [2], 1250 nM.
For `COCn1c(=O)n(-c2cnn(Cc3c(C)noc3C)c2)c(=O)n1Cc1ccccc1` [Example 10-89, 1-benzyl-4-(1-((3,5-dimethylisoxazol-4-yl)methyl)-1H-pyrazol-4-yl)-2-(methoxymethyl)-1,2,4-triazolidine-3,5-dione], in that order: 20 nM and 24 nM.
Consider `CCn1c(=O)n(-c2cnn(Cc3c(C)noc3C)c2)c(=O)n1Cc1ccccc1` [Example 10-91, 1-benzyl-4-(1-((3,5-dimethylisoxazol-4-yl)methyl)-1H-pyrazol-4-yl)-2-ethyl-1,2,4-triazolidine-3,5-dione], for which the half-maximal inhibitory concentration (IC50) came to 40 nM under setting [1] and 41 nM under setting [2].
In the case of `COCCn1c(=O)n(-c2cnn(Cc3c(C)noc3C)c2)c(=O)n1Cc1ccccc1` [Example 10-92, 1-benzyl-4-(1-((3,5-dimethylisoxazol-4-yl)methyl)-1H-pyrazol-4-yl)-2-(2-methoxyethyl)-1,2,4-triazolidine-3,5-dione], the IC50 was found to be 60 nM under setting [1] and 57 nM under setting [2].
With `CCCn1c(=O)n(-c2cnn(Cc3c(C)noc3C)c2)c(=O)n1Cc1ccccc1` [Example 10-93, 1-benzyl-4-(1-((3,5-dimethylisoxazol-4-yl)methyl)-1H-pyrazol-4-yl)-2-propyl-1,2,4-triazolidine-3,5-dione], the IC50 runs as follows: under setting [1], 60 nM; under setting [2], 62 nM.
With `Cc1noc(C)c1Cn1cc(N2C(=O)CN(CCCc3ccccc3)C2=O)cn1` [Example 10-94, 3-(1-((3,5-dimethylisoxazol-4-yl)methyl)-1H-pyrazol-4-yl)-1-(3-phenylpropyl)imidazolidine-2,4-dione], the IC50 under setting [1] turned out to be 260 nM and the IC50 under setting [2] came out at 68 nM.
For `CCCCn1c(=O)n(-c2cnn(Cc3c(C)noc3C)c2)c(=O)n1Cc1ccccc1` [Example 10-95], the IC50 is 410 nM under setting [1] and 409 nM under setting [2].
Regarding `Cc1noc(C)c1Cn1cc(N2C(=O)CN(Cc3cccc(CNC(=O)OC(C)(C)C)c3)C2=O)cn1` [Example 10-96, tert-butyl 3-((3-(1-((3,5-dimethylisoxazol-4-yl)methyl)-1H-pyrazol-4-yl)-2,4-dioxoimidazolidin-1-yl)methyl)benzylcarbamate], the IC50 by setting is: under setting [1], 900 nM; under setting [2], 891 nM.
Take `Cc1noc(C)c1Cn1cc(N2C(=O)NC(CO)C2=O)cn1` (centres unmarked) [Example 10-97, 3-(1-((3,5-dimethylisoxazol-4-yl)methyl)-1H-pyrazol-4-yl)-5-(hydroxymethyl)imidazolidine-2,4-dione]: the IC50 under setting [1] came out at 3000 nM.
Still for that read-out and setting: the result for `Cc1noc(C)c1Cn1cc(N2C(=O)N(Cc3cccc(O)c3)C3(CCC3)C2=O)cn1` [Example 12-4, 7-(1-((3,5-dimethylisoxazol-4-yl)methyl)-1H-pyrazol-4-yl)-5-(3-hydroxybenzyl)-5,7-diazaspiro[3.4]octane-6,8-dione] reads 30 nM; that for `Cc1noc(C)c1Cn1cc(N2C(=O)N(Cc3cccc(O)c3)C3(CCCC3)C2=O)cn1` [Example 12-5, 3-(1-((3,5-dimethylisoxazol-4-yl)methyl)-1H-pyrazol-4-yl)-1-(3-hydroxybenzyl)-1,3-diazaspiro[4.4]nonane-2,4-dione], 70 nM.
For the compound `Cc1noc(C)c1Cn1cc(N2C(=O)[C@H](C)N(Cc3cccc(O)c3)C2=O)cn1` [Example 12-6, (S)-3-(1-((3,5-dimethylisoxazol-4-yl)methyl)-1H-pyrazol-4-yl)-1-(3-hydroxybenzyl)-5-methylimidazolidine-2,4-dione], the half-maximal inhibitory concentration (IC50) under setting [1] is 20 nM.
`Cc1noc(C)c1Cn1cc(N2C(=O)[C@@H](C)N(Cc3cccc(O)c3)C2=O)cn1` [Example 12-7, (R)-3-(1-((3,5-dimethylisoxazol-4-yl)methyl)-1H-pyrazol-4-yl)-1-(3-hydroxybenzyl)-5-methylimidazolidine-2,4-dione]: under setting [1], the half-inhibitory concentration (IC50) worked out at 20 nM.
The same measure, in the same setting: the result for `Cc1noc(C)c1Cn1cc(N2C(=O)[C@H](C(C)C)N(Cc3cccc(O)c3)C2=O)cn1` [Example 12-8, (S)-3-(1-((3,5-dimethylisoxazol-4-yl)methyl)-1H-pyrazol-4-yl)-1-(3-hydroxybenzyl)-5-isopropylimidazolidine-2,4-dione] reads 650 nM; that for `Cc1noc(C)c1Cn1cc(N2C(=O)[C@H](CO)N(Cc3cccc(O)c3)C2=O)cn1` [Example 12-9, (S)-3-(1-((3,5-dimethylisoxazol-4-yl)methyl)-1H-pyrazol-4-yl)-1-(3-hydroxybenzyl)-5-(hydroxymethyl)imidazolidine-2,4-dione], 40 nM.
`Cc1noc(C)c1Cn1cc(N2C(=O)N(Cc3cccc(O)c3)C(C)(CO)C2=O)cn1` (centres unmarked) [Example 12-10, 3-(1-((3,5-dimethylisoxazol-4-yl)methyl)-1H-pyrazol-4-yl)-1-(3-hydroxybenzyl)-5-(hydroxymethyl)-5-methylimidazolidine-2,4-dione]: under setting [1], the IC50 turned out to be 130 nM.
On to `Cc1noc(C)c1Cn1cc(N2C(=O)[C@H](C)N(Cc3ccccc3)C2=O)cn1` [Example 12-11, (S)-1-benzyl-3-(1-((3,5-dimethylisoxazol-4-yl)methyl)-1H-pyrazol-4-yl)-5-methylimidazolidine-2,4-dione], for which the IC50 under setting [1] worked out at 10 nM.
